In patent US7312225B2, “Macrocyclic pyrimidines, their production and use as pharmaceutical agents” (Bayer Schering Pharma AG, priority 2002, dated 2007):
pIC50: −log10 of the molar value. Counter-ions that a name gives are not always drawn. Like-named read-outs stand apart in the source and are kept apart here.

Assays:
CDK2/CycE = molecular target: T1, CDK2/CycE (Homo sapiens, UniProt P24941); experiment: CDK2/CycE kinase assay; type: biochemical
T1 construct: GST; purchased ProQinase GmbH, Freiburg; host or cells: baculovirus-infected insect cells (Sf9)
Protocol: Recombinant CDK2- and CycE-GST-fusion proteins, purified from baculovirus-infected insect cells (Sf9), were purchased from ProQinase GmbH, Freiburg. Histone IIIS, which was used as a kinase substrate, was purchased from the Sigma Company.
The reaction was stopped by adding EDTA solution (250 mmol, pH 8.0, 14 μl/measuring point).
From each reaction batch, 10 μl was applied to P30 filter strips (Wallac Company), and non-incorporated ^33P-ATP was removed by subjecting the filter strips to three washing cycles for 10 minutes each in 0.5% phosphoric acid. After the filter strips were dried for one hour at 70° C., the filter strips were covered with scintillator strips (MeltiLex™ A, Wallac Company) and baked for one hour at 90° C. The amount of incorporated ^33P (substrate phosphorylation) was determined by scintillation measurement in a gamma-radiation measuring device (Wallac).

CDK1/CycB = molecular target: T2, CDK1/CycB (Homo sapiens, UniProt P06493); experiment: CDK1/CycB kinase assay; type: biochemical; details: Table I
T2 construct: GST; purchased ProQinase GmbH, Freiburg; host or cells: baculovirus-infected insect cells (Sf9)
Protocol: Recombinant CDK1- and CycB-GST fusion proteins, purified from baculovirus-infected insect cells (Sf9), were purchased from ProQinase GmbH, Freiburg. Histone IIIS, which was used as a kinase substrate, is commercially available from the Sigma Company.
CDK1/CycB (200 ng/measuring point) was incubated for 15 minutes at 22° C. in the presence of various concentrations of test substances (0 μm, as well as within the range of 0.01-100 μm) in assay buffer [50 mmol of tris/HCl, pH 8.0, 10 mmol of MgCl2, 0.1 mmol of Na ortho-vanadate, 1.0 mmol of dithiothreitol, 0.5 μm of adenosine triphosphate (ATP), 10 μg/measuring point of histone IIIS, 0.2 μCi/measuring point of 33P-gamma ATP, 0.05% NP40, 12.5% dimethyl sulfoxide]. The reaction was stopped by adding EDTA solution (250 mmol, pH 8.0, 14 μl/measuring point).
From each reaction batch, 10 μl was applied to P30 filter strips (Wallac Company), and non-incorporated 33P-ATP was removed by three washing cycles of the filter strips for 10 minutes each in 0.5% phosphoric acid. After the filter strips were dried for 1 hour at 70° C., the filter strips were covered with scintillator strips (MeltiLex™ A, Wallac Company) and baked for one hour at 90° C. The amount of incorporated 33P (substrate phosphorylation) was determined by scintillation measurement in a gamma-radiation measuring device (Wallac).

[1] = molecular target: T3, VEGF Receptor tyrosine kinase-2 (Homo sapiens, UniProt P35968); experiment: VEGF Rezeptor-2 kinase assay; type: biochemical; details: Table I; read-out: VEGF-R2 IC50
T3 construct: GST; made in house; host or cells: baculovirus-infected insect cells (Sf9)
Protocol: VEGF Rezeptor-2 Kinase Assay
Recombinant VEGF Receptor tyrosine kinase-2 was purified as GST-fusion protein from baculovirus-infected insect cells (Sf9). Poly-(Glu4Tyr), which was used as a kinase substrate, was purchased from the Sigma Company.
VEGF Receptor tyrosine kinase (90 ng/measuring point) was incubated for 10 minutes at 22° C. in the presence of various concentrations of test substances (0 μmol, as well as within the range of 0.001-30 μM) in 30 μl of assay buffer [40 mmol of Tris/HCl […], 10 mmol of MgCl2, 1 mmol of MnCl2, 3 μmol of Na orthovanadate, 1.0 mmol of dithiothreitol, 8 μmol of adenosine trisphosphate (ATP), 27 μg/measuring point of poly-(Glu4Tyr), 0.2 μCi/measuring point of ^33P-gamma ATP, 1% dimethyl sulfoxide]. The reaction was stopped by adding EDTA solution (250 mmol, pH 7.0, 10 μl/measuring point).
From each reaction batch, 10 μl was applied to P30 filter strips (Wallac Company), and non-incorporated 33P-ATP was removed by subjecting the filter strips to three washing cycles for 10 minutes each in 0.5% phosphoric acid. After the filter strips were dried for 1 hour at 70° C., the filter strips were covered with scintillator strips (MeltiLex™ A, Wallac Company) and baked on for 1 hour at 90° C. The amount of incorporated 33P (substrate phosphorylation) was determined by scintillation measurement in a gamma-radiation measuring device (Wallac).

MCF7 = experiment: Proliferation assay MCF7; type: cell-based; details: Homo sapiens, MCF7, 96 h, 4 days incubation, crystal violet
From the text: (§1) Cultivated human tumor cells (MCF7, […] human breast cancer cells, relative to ATCC HTB22; NCI-H460, human non-small-cell lung cancer cells, ATCC HTB-177, HCT 116, human colon cancer cells, ATCC CCL-247; DU 145, hormone-independent human prostate cancer cells, ATCC HTB-81; MaTu-MDR, hormone-independent, multiple pharmaceutical agent-resistant human breast cancer cells, EPO-GmbH, Berlin) were flattened out at a density of about 5000 cells/measuring point, depending on growth rates of the respective cells in a 96-well multititer plate in 200 μl of the corresponding growth medium. After 24 hours, the cells of one plate (zero-point plate) were colored with crystal violet (see below), while the medium of the other plates was replaced by fresh culture medium (200 μl), to which the test substances were added at various concentrations (0 μmol, as well as in the range of 0.01-30 μmol; the final concentration of the solvent dimethyl sulfoxide was 0.5%). The cells were incubated for 4 days in the presence of test substances. The cell proliferation was determined by coloring the cells with crystal violet: the cells were fixed by adding 20 μl/measuring point of an 11% glutaric aldehyde solution for 15 minutes at room temperature. After three washing cycles of the fixed cells with water, the plates were dried at room temperature. The cells were colored by adding 100 μl/measuring point of a 0.1% crystal violet solution (pH was set at 3 by adding acetic acid). After three washing cycles of the colored cells with water, the plates were dried at room temperature. The dye was dissolved by adding 100 μl/measuring point of a 10% acetic acid solution. The extinction was determined by photometry at a wavelength of 595 nm. The change of cell growth, in percent, was calculated by standardization of the measured values to the extinction values of the zero-point plate (=0%) and the extinction of the untreated (0 μm) cells (=100%).

H460 = experiment: Proliferation assay H460; type: cell-based; details: Homo sapiens, NCI-H460, 96 h; Table II; 4 days incubation, crystal violet
From the text: as §1

HCT116 = experiment: Proliferation assay HCT116; type: cell-based; details: Homo sapiens, HCT-116, 96 h; Table II; 4 days incubation, crystal violet
From the text: as §1

DU145 = experiment: Proliferation assay DU145; type: cell-based; details: Homo sapiens, DU-145, 96 h; Table II; 4 days incubation, crystal violet
From the text: as §1

MaTu-ADR = experiment: Proliferation assay MaTu-ADR; type: cell-based; details: Homo sapiens, 96 h; Table II; 4 days incubation, crystal violet; read-out: Proliferation IC50 MaTu-ADR
From the text: as §1

[2] = Table I, read-out: CDK2/CycE IC50
[3] = Table II, read-out: Inhibition IC50 CDK2/CycE
[4] = Table II, read-out: Proliferation IC50 MCF7

T2 sequence (P06493 whole entry): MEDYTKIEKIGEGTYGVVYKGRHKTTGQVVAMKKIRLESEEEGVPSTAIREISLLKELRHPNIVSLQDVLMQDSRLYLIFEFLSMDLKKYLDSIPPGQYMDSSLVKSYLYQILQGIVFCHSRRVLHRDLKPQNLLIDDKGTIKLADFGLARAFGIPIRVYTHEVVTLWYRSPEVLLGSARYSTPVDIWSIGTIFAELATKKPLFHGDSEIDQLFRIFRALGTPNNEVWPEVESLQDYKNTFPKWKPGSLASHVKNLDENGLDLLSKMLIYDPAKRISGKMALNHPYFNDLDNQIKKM
T2 sequence (P14635 whole entry partner): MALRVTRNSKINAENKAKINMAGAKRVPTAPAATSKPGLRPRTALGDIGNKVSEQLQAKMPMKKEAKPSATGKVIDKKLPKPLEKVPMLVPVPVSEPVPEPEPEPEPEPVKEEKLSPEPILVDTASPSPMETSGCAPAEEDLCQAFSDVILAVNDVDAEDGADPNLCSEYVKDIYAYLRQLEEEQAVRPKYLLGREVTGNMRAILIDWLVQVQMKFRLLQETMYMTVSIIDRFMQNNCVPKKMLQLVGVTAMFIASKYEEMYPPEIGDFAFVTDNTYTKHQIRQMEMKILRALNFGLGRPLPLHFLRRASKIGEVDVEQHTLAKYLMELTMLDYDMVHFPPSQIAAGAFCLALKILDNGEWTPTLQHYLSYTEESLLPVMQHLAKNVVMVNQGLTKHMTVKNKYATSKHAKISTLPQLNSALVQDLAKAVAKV
T3 sequence (P35968 20-1356): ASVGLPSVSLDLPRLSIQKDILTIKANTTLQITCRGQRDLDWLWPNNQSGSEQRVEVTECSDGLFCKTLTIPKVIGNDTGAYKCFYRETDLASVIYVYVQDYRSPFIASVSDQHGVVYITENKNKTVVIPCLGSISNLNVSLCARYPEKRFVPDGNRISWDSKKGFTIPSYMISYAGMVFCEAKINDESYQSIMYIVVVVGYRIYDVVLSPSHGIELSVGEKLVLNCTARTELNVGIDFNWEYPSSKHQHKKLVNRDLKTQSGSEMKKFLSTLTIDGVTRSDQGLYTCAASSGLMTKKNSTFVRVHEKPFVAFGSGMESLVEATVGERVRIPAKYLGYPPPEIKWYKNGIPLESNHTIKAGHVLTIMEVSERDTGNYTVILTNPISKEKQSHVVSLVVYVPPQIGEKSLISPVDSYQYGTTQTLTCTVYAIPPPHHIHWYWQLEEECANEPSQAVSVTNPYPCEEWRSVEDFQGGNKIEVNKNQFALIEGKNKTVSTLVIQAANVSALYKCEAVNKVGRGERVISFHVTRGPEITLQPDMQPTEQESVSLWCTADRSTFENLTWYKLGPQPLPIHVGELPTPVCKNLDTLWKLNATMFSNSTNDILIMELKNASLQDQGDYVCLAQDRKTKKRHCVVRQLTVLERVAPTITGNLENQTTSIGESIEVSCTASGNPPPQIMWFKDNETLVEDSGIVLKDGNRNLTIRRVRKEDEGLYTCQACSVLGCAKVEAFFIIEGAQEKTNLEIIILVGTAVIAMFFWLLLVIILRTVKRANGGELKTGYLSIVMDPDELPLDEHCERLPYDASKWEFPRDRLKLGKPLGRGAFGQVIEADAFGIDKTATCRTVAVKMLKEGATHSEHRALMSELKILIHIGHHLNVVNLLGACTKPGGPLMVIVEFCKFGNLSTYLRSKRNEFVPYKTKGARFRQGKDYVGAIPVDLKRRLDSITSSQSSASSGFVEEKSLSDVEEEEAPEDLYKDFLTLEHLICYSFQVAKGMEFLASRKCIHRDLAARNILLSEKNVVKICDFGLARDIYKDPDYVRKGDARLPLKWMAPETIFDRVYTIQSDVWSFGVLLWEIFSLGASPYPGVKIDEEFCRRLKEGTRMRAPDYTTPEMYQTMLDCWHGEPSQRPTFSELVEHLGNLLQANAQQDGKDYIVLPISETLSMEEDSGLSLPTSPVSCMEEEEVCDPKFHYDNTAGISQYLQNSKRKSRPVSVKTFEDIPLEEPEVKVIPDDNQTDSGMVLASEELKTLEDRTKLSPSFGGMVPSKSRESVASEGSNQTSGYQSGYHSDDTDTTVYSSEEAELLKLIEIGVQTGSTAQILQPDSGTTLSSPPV

SMILES	pIC50 (CDK2/CycE; [2])	pIC50 (CDK2/CycE; [3])	pIC50 (CDK1/CycB)	pIC50 [1]	pIC50 (MCF7; Table I, read-out: MCF7 IC50)	pIC50 (MCF7; [4])	pIC50 (H460)	pIC50 (HCT116)	pIC50 (DU145)	pIC50 (MaTu-ADR)
O=S1(=O)NCCC(CO)Nc2nc(ncc2Br)Nc2cccc1c2 (racemic) [Example 1.3, rac-1^5-Bromo-4-thia-2,5,9-triaza-1(2,4)-pyrimidina-3(1,3)-benzenacyclonaphane-8-methanol-4,4-dioxide Hydrochloride]	7.64	7.64	7.55	> 8.00	6.00	6.00	5.77	6.05	5.54	5.55
O=[N+]([O-])c1cc2cc(c1)S(=O)(=O)NCCCNc1nc(ncc1Br)N2 [Example 1.5, 1^5-Bromo-3^5-nitro-4-thia-2,5,9-triaza-1(2,4)-pyrimidina-3(1,3)-benzenacyclononaphane-4,4-dioxide hydrochloride]	–	–	7.55	7.16	6.05	6.05	6.22	6.40	5.89	6.22
NS(=O)(=O)c1ccc2cc1OCCCCNc1nc(ncc1Br)N2 [Example 8.0, 1^5-Bromo-4-oxa-2,9-diaza-1(2,4)-pyrimidina-3(1,3)-benzenacyclononaphane-3^4-sulfonamide]	6.89	6.89	7.10	6.85	5.89	5.89	6.30	6.40	6.30	6.40
